Reference: US20230210096A1, “NON-HUMAN ANIMAL MODELS FOR AGING AND/OR NEURODEGENERATION” (University of Pittsburgh - Of the Commonwealth System of …, priority 2020, published 2023)

Tests used:
R6/2 mice = experiment: Melatonin injection in R6/2 mouse model of HD: cytosolic mtDNA, cGAS/STING/IRF3, cytokines; type: in vivo; conditions: melatonin 30 mg/kg injected daily from 6 to 9 weeks of age
Description: Since melatonin is protective in R6/2 mice and melatonin is deficient in humans with HD, it was evaluated whether exogenous melatonin reduces mtDNA release and consequent inflammation. Six-week old R6/2 mice were injected with melatonin daily for 3 weeks. Melatonin inhibited mtDNA release and ameliorated cGAS/STING/IRF3 upregulation in cortex and striatum in 9-week R6/2 mice (FIGS. 12D and E, and FIG. 13A).
R6/2 mice, which carry the promoter sequence and exon 1 of a mutant human HTT gene with approximately 150 CAG repeats, were obtained from JAX (Bar Harbor, ME). A colony was maintained by breeding R6/2 males with B6CBAF1 females (JAX). CAG repeat length was determined for every mouse in the colony and mice with 150 +/-10 CAG repeats were used. PCR genotyping was performed. Three, six and Nine week-old R6/2 mice were used in the experiments.
(§1) Samples (isolated mitochondria or whole-cell lysates) were cleared by centrifugation at 20,000 x g, equal amounts of protein were separated on Novex 4-12% gradient polyacrylamide gels (Invitrogen), and proteins transferred overnight onto 0.45 µm polyvinylidene difluoride (PVDF) membranes. The membranes were then incubated with the indicated primary antibodies overnight at 4° C. followed by incubation with secondary antibodies (Li-Cor) for 1 hour at room temperature, which were detected using the Odyssey CLx Infrared Imaging System (Li-Cor). Band intensities were quantified using Image Studio (Li-Cor).
(§2) Total RNA was isolated using the RNeasy Plus kit (Qiagen) and quantified using a ND-1000 spectrophotometer. cDNA was prepared using 1000 ng total RNA by a reverse transcription PCR (RT-PCR) using a high capacity cDNA reverse transcription kit (Applied Biosystems). qPCR was performed on cDNA using SYBR Green chemistry. qPCR was performed on a Biorad CFX touch PCR using Applied Biosystems PowerUp SYBR green master mix. Fold changes in expression were calculated by the ΔΔCt method using mouse β-Actin as an endogenous control for mRNA expression. All fold changes were expressed normalized to the untreated control. […]

[1] = system: AANAT-KO differentiated N2a cells; experiment: Neurite length and number by βIII-tubulin staining; type: cell-based, mouse; conditions: melatonin 5 µM
Description: (§3) N2a cells were obtained from ATCC and grown in DMEM/F12 medium with 10% FBS. AANAT-KO N2a cells were generated as described elsewhere (see, e.g., Suofu et al., PNAS 114:E7997-E8006 (2017)). N2a cells were differentiated by exposing them to 10 µM retinoic acid (RA) with 2% fetal bovine serum (FBS) for 8 days. Every alternate day, the culture medium of differentiating N2a cells was replaced with fresh medium containing 10 µM of RA. N2a cells were treated with 5 µM melatonin during differentiation to evaluate the effect of melatonin in WT and AANAT-KO N2a differentiated neurons. Fresh melatonin was added with RA every alternate day for 8 days. All experiments were performed in 8-day-differentiated neurons with or without melatonin. STHdh^Q7/Q7 (Q7) STHdh^Q111/Q111 (Q111) cells were grown in MEM culture medium with 10% FBS. Differentiation of Q7 and Q111 cells was induced by exposing cells to 10 ng/mL α-FGF, 250 µM 3-isobutyl-1-methylxanthine (IBMX), 200 nM phorbol 12-myristate 13-acetate (TPA), 50 µM forskolin and 10 µM dopamine for 2 days. AANAT-KO and littermate WT primary cerebro-cortical neuron (PCN) cultures were prepared from embryonic day (E) 15.5 embryos, as described elsewhere (see, e.g., Yano et al., Nature neuroscience 17:822 (2014)). […]

[2] = system: AANAT-KO primary cerebrocortical neurons (PCNs); experiment: MMP (TMRM) and mitochondrial ROS (Mitosox) in PCNs; type: cell-based, mouse; conditions: AANAT-KO PCN, DIV21, melatonin 5 µM in culture medium
Description: as §3, with “FBS.” for “FBS. Differentiation of Q7 and Q111 cells was induced by exposing cells to 10 ng/mL α-FGF, 250 µM 3-isobutyl-1-methylxanthine (IBMX), 200 nM phorbol 12-myristate 13-acetate (TPA), 50 µM forskolin and 10 µM dopamine for 2 days. AANAT-KO and littermate WT primary cerebro-cortical neuron (PCN) cultures were prepared from embryonic day (E) 15.5 embryos, as described elsewhere (see, e.g., Yano et al., Nature neuroscience 17:822 (2014)).”
(§4) ROS accumulation in cells was estimated by either DCFDA for total ROS or Mitosox for mitochondrial ROS. Cells were incubated in 20 µM DCFDA for 45 minutes or 5 µM Mitosox for 15 minutes at 37° C. and fluorescence was measured using plate reader or flowcytometry. […] Cells were incubated in 2 µg/mL JC-1 or 25 nM TMRM for 30 minutes at 37° C. and fluorescence were measured using plate reader or flowcytrometry. […]

[3] = system: AANAT-KO primary cerebrocortical neurons (PCNs); experiment: Cytokine ELISA in culture medium of PCNs; type: cell-based, mouse; conditions: AANAT-KO PCN, DIV21, melatonin 5 µM
Description: (§5) N2a cells were obtained from ATCC and grown in DMEM/F12 medium with 10% FBS. AANAT-KO N2a cells were generated as described elsewhere (see, e.g., Suofu et al., PNAS 114:E7997-E8006 (2017)). N2a cells were differentiated by exposing them to 10 µM retinoic acid (RA) with 2% fetal bovine serum (FBS) for 8 days. Every alternate day, the culture medium of differentiating N2a cells was replaced with fresh medium containing 10 µM of RA. N2a cells were treated with 5 µM melatonin during differentiation to evaluate the effect of melatonin in WT and AANAT-KO N2a differentiated neurons. Fresh melatonin was added with RA every alternate day for 8 days. All experiments were performed in 8-day-differentiated neurons with or without melatonin. STHdh^Q7/Q7 (Q7) STHdh^Q111/Q111 (Q111) cells were grown in MEM culture medium with 10% FBS. Differentiation of Q7 and Q111 cells was induced by exposing cells to 10 ng/mL α-FGF, 250 µM 3-isobutyl-1-methylxanthine (IBMX), 200 nM phorbol 12-myristate 13-acetate (TPA), 50 µM forskolin and 10 µM dopamine for 2 days. AANAT-KO and littermate WT primary cerebro-cortical neuron (PCN) cultures were prepared from embryonic day (E) 15.5 embryos, as described elsewhere (see, e.g., Yano et al., Nature neuroscience 17:822 (2014)).

[4] = system: AANAT-KO differentiated N2a cells; experiment: Immunoblot of inflammatory, caspase and synaptic markers in differentiated N2a cells; type: cell-based, mouse; conditions: melatonin 5 µM
Description: as §5, §1

[5] = system: AANAT-KO differentiated N2a cells; experiment: qPCR of cytosolic mtDNA in differentiated N2a cells; type: cell-based, mouse; conditions: melatonin 5 µM
Description: as §3, with “days.” for “days. AANAT-KO and littermate WT primary cerebro-cortical neuron (PCN) cultures were prepared from embryonic day (E) 15.5 embryos, as described elsewhere (see, e.g., Yano et al., Nature neuroscience 17:822 (2014)).”
(§6) For measurement of mtDNA in cytosol in cells, cell fractions were prepared using Cell Fractionation Kit (Abeam). […] The copy number of mtDNA encoding cytochrome c oxidase 1 (mt-CO1), mt-Dloop1 and mt-Dloop3 was measured by quantitative real-time PCR with same volume of DNA solution. […]

[6] = system: AANAT-KO differentiated N2a cells; experiment: Cytokine ELISA in culture medium of differentiated N2a cells; type: cell-based, mouse; conditions: melatonin 5 µM
Description: as §5

[7] = system: AANAT-KO differentiated N2a cells; experiment: 8-OHDG immunofluorescence (mtDNA oxidative damage) in differentiated N2a cells; type: cell-based, mouse; conditions: melatonin 5 µM
Description: as §3

[8] = system: mitochondria of AANAT-KO differentiated N2a cells; experiment: Mitochondrial in vitro protein import assay (pOTC/mOTC); type: cell-based, mouse; conditions: melatonin
Description: as §3, with “FBS.” for “FBS. Differentiation of Q7 and Q111 cells was induced by exposing cells to 10 ng/mL α-FGF, 250 µM 3-isobutyl-1-methylxanthine (IBMX), 200 nM phorbol 12-myristate 13-acetate (TPA), 50 µM forskolin and 10 µM dopamine for 2 days. AANAT-KO and littermate WT primary cerebro-cortical neuron (PCN) cultures were prepared from embryonic day (E) 15.5 embryos, as described elsewhere (see, e.g., Yano et al., Nature neuroscience 17:822 (2014)).”
Ornithine transcarbamylase (OTC) precursor cDNA in pGEM-3Zf(+)-pOTC plasmid was transcribed and translated in vitro using the TNT Coupled Reticulocyte Lysate System (Promega) in the presence of [^35S] methionine (PerkinElmer). […] Mature OTC, which represents the cleaved protein after translocation into the mitochondrial matrix, was quantified by ImageJ (NIH). […]

[9] = system: AANAT-KO primary cerebrocortical neurons (PCNs); experiment: qPCR of cytosolic mtDNA in PCNs; type: cell-based, mouse; conditions: AANAT-KO PCN, DIV21, melatonin 5 µM
Description: as §3, with “days.” for “days. AANAT-KO and littermate WT primary cerebro-cortical neuron (PCN) cultures were prepared from embryonic day (E) 15.5 embryos, as described elsewhere (see, e.g., Yano et al., Nature neuroscience 17:822 (2014)).”
as §6

[10] = system: AANAT-KO differentiated N2a cells; experiment: ROS (Mitosox) and MMP (JC-1/TMRM) in differentiated N2a cells; type: cell-based, mouse; conditions: melatonin 5 µM
Description: as §3, with “FBS.” for “FBS. Differentiation of Q7 and Q111 cells was induced by exposing cells to 10 ng/mL α-FGF, 250 µM 3-isobutyl-1-methylxanthine (IBMX), 200 nM phorbol 12-myristate 13-acetate (TPA), 50 µM forskolin and 10 µM dopamine for 2 days. AANAT-KO and littermate WT primary cerebro-cortical neuron (PCN) cultures were prepared from embryonic day (E) 15.5 embryos, as described elsewhere (see, e.g., Yano et al., Nature neuroscience 17:822 (2014)).”
as §4

[11] = system: AANAT-KO primary cerebrocortical neurons (PCNs); experiment: Immunoblot of cGAS, STING, IRF3, caspase-1 in PCNs; type: cell-based, mouse; conditions: AANAT-KO PCN, DIV21, melatonin 5 µM
Description: (§7) N2a cells were obtained from ATCC and grown in DMEM/F12 medium with 10% FBS. AANAT-KO N2a cells were generated as described elsewhere (see, e.g., Suofu et al., PNAS 114:E7997-E8006 (2017)). N2a cells were differentiated by exposing them to 10 µM retinoic acid (RA) with 2% fetal bovine serum (FBS) for 8 days. Every alternate day, the culture medium of differentiating N2a cells was replaced with fresh medium containing 10 µM of RA. N2a cells were treated with 5 µM melatonin during differentiation to evaluate the effect of melatonin in WT and AANAT-KO N2a differentiated neurons. Fresh melatonin was added with RA every alternate day for 8 days. All experiments were performed in 8-day-differentiated neurons with or without melatonin. […]
as §1

[12] = system: Q7 and Q111 differentiated neurons; experiment: Cytokine ELISA and mRNA qPCR in differentiated Q7 and Q111 neurons; type: cell-based, mice; conditions: Q111 differentiated neurons transfected with DNase 1, LDH control
Description: as §7, with “melatonin. STHdh^Q7/Q7 (Q7) STHdh^Q111/Q111 (Q111) cells were grown in MEM culture medium with 10% FBS.” for “melatonin.”
as §2, with “expression.” for “expression. All fold changes were expressed normalized to the untreated control.”

[13] = system: Q7 and Q111 differentiated neurons; experiment: Immunoblot of cGAS, IRF3, STING in differentiated Q7 and Q111 neurons; type: cell-based, mice; conditions: differentiated Q111 neurons transfected with DNase 1, LDH control
Description: as §7
as §1, with “Studio (Li-Cor). […]” for “Studio (Li-Cor).”

Q111 cells = experiment: ROS (Mitosox) and MMP (TMRM) in differentiated Q7 and Q111 neurons; type: cell-based, mice; conditions: Q111 cells transfected with DNase 1, 2 µg/mL, LDH control
Description: as §7, with “melatonin. STHdh^Q7/Q7 (Q7) STHdh^Q111/Q111 (Q111) cells were grown in MEM culture medium with 10% FBS.” for “melatonin.”
as §4

Molecule: COc1ccc2[nH]cc(CCNC(C)=O)c2c1 [melatonin, Melatonin]
- expression of pro-inflammatory cytokines in brain (R6/2 mice): reduced
- cGAS/STING/IRF3 upregulation (R6/2 mice; cortex and striatum): ameliorated
- mtDNA release (cytosolic mtDNA) (R6/2 mice; cortex and striatum): inhibited
- average neurite length [1]: rescued
- average neurite number [1]: rescued
- MMP (TMRM fluorescence) [2]: restored
- mitochondrial ROS (Mitosox) [2]: restored
- proinflammatory cytokines secretion [3]: inhibited
- caspase-3 activation [4]: inhibited
- expression of PSD95 (post-synaptic marker) [4]: increased
- expression of synaptophysin (pre-synaptic marker) [4]: increased
- inflammatory signaling pathways (Nf-kβ phosphorylation, caspase-1 cleavage, cGAS/STING/IRF3 levels) [4]: inhibited
- mtDNA release (cytosolic mtDNA) [5]: prevented
- pro-inflammatory cytokines secretion [6]: inhibited
- mtDNA damage (8-OHDG) [7]: mitigated
- mitochondrial protein import [8]: mitigated
- cytosolic mtDNA (mt-CO1, mt-Dloop1, mt-Dloop3) [9]: inhibited
- MMP (JC-1 fluorescence) [10]: mitigated
- ROS (Mitosox fluorescence) [10]: mitigated
- cGAS/STING/IRF3 protein levels [11]: inhibited
- caspase-1 [11]: inhibited

B1: DNAse1: DNAse1 protein transfected to degrade cytosolic DNA (protein, UniProt P24855 23-282, looked up)
Deoxyribonuclease-1: LKIAAFNIQTFGETKMSNATLVSYIVQILSRYDIALVQEVRDSHLTAVGKLLDNLNQDAPDTYHYVVSEPLGRNSYKERYLFVYRPDQVSAVDSYYYDDGCEPCGNDTFNREPAIVRFFSRFTEVREFAIVPLHAAPGDAVAEIDALYDVYLDVQEKWGLEDVMLMGDFNAGCSYVRPSQWSSIRLWTSPTFQWLIPDSADTTATPTHCAYDRIVVAGMLLRGAVVPDSALPFNFQAAYGLSDQLAQAISDHYPVEVMLK
- proinflammatory cytokine secretion [12]: inhibited
- cGAS/STING/IRF3 levels [13]: inhibited
- elevated ROS (Mitosox) (Q111 cells): did not alter
- reduced MMP (TMRM) (Q111 cells): did not alter
